Source: the NIST ThermoML archive (doi:10.1021/acs.jced.5b01000)
± gives the expanded uncertainty stated by the source.

Assays:
[1] = refractive index (Na D-line) (dimensionless); conditions: 99 kPa, Liquid, Standard Abbe refractometry
[2] = 99 kPa, Liquid; for viscosity: Capillary tube (Ostwald / Ubbelohde) method; for speed of sound: Frequency=3 MHz, Sing-around technique in a fixed-path interferometer; for mass density: Vibrating tube method
[3] = xn = mol fraction of the nth substance listed; conditions: 99 kPa, Liquid, x2 = 0; for viscosity: Capillary tube (Ostwald / Ubbelohde) method; for speed of sound: Frequency=3 MHz, Sing-around technique in a fixed-path interferometer; for mass density: Vibrating tube method
[4] = refractive index (Na D-line) (dimensionless); xn = mol fraction of the nth substance listed; conditions: 99 kPa, Liquid, Standard Abbe refractometry, x2 = 0

SMILES	refractive index ([1]; 283.15 K)	refractive index ([1]; 298.15 K)	refractive index ([1]; 313.15 K)	viscosity ([2]; 283.15 K)	speed of sound ([2]; 283.15 K)	mass density ([2]; 283.15 K)	viscosity ([2]; 298.15 K)	speed of sound ([2]; 298.15 K)	mass density ([2]; 298.15 K)	viscosity ([2]; 313.15 K)	speed of sound ([2]; 313.15 K)	mass density ([2]; 313.15 K)	viscosity ([3]; 283.15 K)	speed of sound ([3]; 283.15 K)	mass density ([3]; 283.15 K)	viscosity ([3]; 298.15 K)	speed of sound ([3]; 298.15 K)	mass density ([3]; 298.15 K)	viscosity ([3]; 313.15 K)	speed of sound ([3]; 313.15 K)	other results
CCO [ethanol]	1.36529 ± 0.00035	1.35913 ± 0.00035	1.35275 ± 0.00035	1.444 ± 0.017 mPa·s	1194.5 ± 1.2 m/s	797.878 ± 0.19 kg/m3	1.079 ± 0.012 mPa·s	1143.2 ± 1.2 m/s	785.054 ± 0.19 kg/m3	0.8235 ± 0.0096 mPa·s	1092.4 ± 1.1 m/s	772.5 ± 0.19 kg/m3									
CCO [ethanol] + CC(=O)N(C)C													1.444 ± 0.017 mPa·s	1194.5 ± 1.2 m/s	797.878 ± 0.19 kg/m3	1.079 ± 0.012 mPa·s	1143.2 ± 1.2 m/s	785.054 ± 0.19 kg/m3	0.8235 ± 0.0096 mPa·s	1092.4 ± 1.1 m/s	mass density ([3]; 313.15 K): 772.5 ± 0.19 kg/m3; refractive index ([4]; 283.15 K): 1.36529 ± 0.00035; refractive index ([4]; 298.15 K): 1.35913 ± 0.00035; refractive index ([4]; 313.15 K): 1.35275 ± 0.00035
CO [methanol] + CC(=O)N(C)C													0.677 ± 0.0079 mPa·s	1152.7 ± 1.2 m/s	800.707 ± 0.19 kg/m3	0.5449 ± 0.0064 mPa·s	1104.2 ± 1.1 m/s	786.611 ± 0.19 kg/m3	0.4441 ± 0.0053 mPa·s	1054.5 ± 1.1 m/s	mass density ([3]; 313.15 K): 772.31 ± 0.19 kg/m3; refractive index ([4]; 283.15 K): 1.33282 ± 0.00035; refractive index ([4]; 298.15 K): 1.32636 ± 0.00035; refractive index ([4]; 313.15 K): 1.32013 ± 0.00035
CC(=O)N(C)C [N,N-dimethylethanamide]	1.44273 ± 0.00036	1.43579 ± 0.00036	1.42901 ± 0.00036	1.168 ± 0.014 mPa·s	1516.8 ± 1.3 m/s	950.131 ± 0.21 kg/m3	0.9299 ± 0.011 mPa·s	1453.7 ± 1.3 m/s	936.289 ± 0.21 kg/m3	0.7644 ± 0.0091 mPa·s	1393.3 ± 1.3 m/s	922.429 ± 0.21 kg/m3									
CO [methanol]	1.33282 ± 0.00035	1.32636 ± 0.00035	1.32013 ± 0.00035	0.677 ± 0.0079 mPa·s	1152.7 ± 1.2 m/s	800.707 ± 0.19 kg/m3	0.5449 ± 0.0064 mPa·s	1104.2 ± 1.1 m/s	786.611 ± 0.19 kg/m3	0.4441 ± 0.0053 mPa·s	1054.5 ± 1.1 m/s	772.31 ± 0.19 kg/m3									
